The numbers were not newly measured in patent publication US7262212B2, “2,3-dihydro-6-nitroimidazo[2,1-b]oxazoles” (Otsuka Pharmaceutical Co., Ltd., priority 2002, dated 2007), which cites them from elsewhere.

The test system of the series is multi-drug-resistant Mycobacterium tuberculosis. The conditions noted are these: multi-drug-resistant strain; cited from earlier work.

Each structure is given as a SMILES string.

`CCC1Cn2cc([N+](=O)[O-])nc2O1` (stereo not shown) [CGI-17341]: the bactericidal action result was “has a bactericidal action”.
